Experimental data published in patent publication US20170210741A1, “Benzimidazole Compounds, Use As Inhibitors of WNT Signaling Pathway in Cancers, and Methods for Preparation Thereof” (Southern Research Institute, priority 2016, published 2017).
Like-named read-outs stand apart in the source and are kept apart here.

Experiments:
Type in all cases: cell-based
Wnt signaling = Wnt signaling reporter assay (Super8XTOPFlash luciferase) in LRP6-expressing HEK293 cells; conditions: 24 h treatment, luciferase normalized to β-galactosidase; for IC50: Homo sapiens, read-out: IC50 (effects on Wnt signaling)
Description: HEK293 cells were plated into 24-well plates. After overnight culture, the cells were transiently transfected with 0.06 μg of the Super8XTOPFlash luciferase construct, 0.06 μg of β-galactosidase-expressing vector, and 0.06 μg of pCS-Myc-hLRP6 or control vector. After 24 h incubation, cells were treated with each individual compound in triplicate for 24 h. Cells were then lysed, and the luciferase and β-galactosidase activities were determined by the luciferase assay system (Promega) and β-galactosidase assay system (Promega), respectively. The luciferase activity was normalized to the β-galactosidase activity.
Table 2 below illustrates the effects of the disclosed compounds on Wnt signaling in LRP6-expressing HEK293 cells.

Suit-2 = assay: In vitro cell viability assay (Cell Titer Glo), pancreatic cancer Suit-2; conditions: 72 h
Description: (§1) Breast cancer SUM159 was obtained from Asterand and grown according to supplier's recommendation. All other cell lines were obtained from ATCC and cultured in standard cell culture conditions with complete cell culture medium containing 10% FBS.
(§2) Cancer cells were seeded into optically clear tissue culture-treated black 96-well plates (for adherent cells) or low-attachment 96-well plates (for cancer stem cells) at 2,000-5000 cells/50 μL of media per well. The cells were treated with Wnt inhibitors at 0.1 to 10 μM for 72 h. Cell viability was measured by the Cell Titer Glo Assay from Promega.

S2VP10 = assay: In vitro cell viability assay (Cell Titer Glo), pancreatic cancer S2VP10; conditions: 72 h
Description: as §1, §2

HCT116 = assay: In vitro cell viability assay (Cell Titer Glo), colorectal cancer HCT116; conditions: Homo sapiens, HCT-116, 72 h
Description: as §1, §2
(§3) Table 4 below illustrates the effects of the disclosed compounds on cell viability of colorectal cancer cell lines.

HT-29 = assay: In vitro cell viability assay (Cell Titer Glo), colorectal cancer HT-29; conditions: Homo sapiens, 72 h
Description: as §1, §2, §3

[1] = Suit-2, CSC enriching serum free medium, non-adherent plates, read-out: Cell viability (IC50) Suit-2 CSC
[2] = Suit-2, adherent, complete medium 10% FBS, read-out: Cell viability (IC50) Suit-2 Adherent
[3] = S2VP10, CSC enriching serum free medium, non-adherent plates, read-out: Cell viability (IC50) S2VP10 CSC
[4] = S2VP10, adherent, complete medium 10% FBS, read-out: Cell viability (IC50) S2VP10 Adherent
[5] = HCT116, CSC conditions, read-out: Cell viability (IC50) HCT116 CSC
[6] = HCT116, adherent, read-out: Cell viability (IC50) HCT116 Adherent
[7] = HT-29, CSC conditions, read-out: Cell viability (IC50) HT-29 CSC
[8] = HT-29, adherent, read-out: Cell viability (IC50) HT-29 Adherent

SMILES | IC50 (Suit-2; [1]) | IC50 (Suit-2; [2]) | IC50 (S2VP10; [3]) | IC50 (S2VP10; [4]) | IC50 (HCT116; [5]) | IC50 (HCT116; [6]) | IC50 (HT-29; [7]) | IC50 (HT-29; [8]) | IC50 (Wnt signaling) | IC50 (effects on Wnt signaling) (Wnt signaling)
Oc1ccc(Cl)cc1-c1nc2cc(Cl)c(Cl)nc2[nH]1 [Compound 9, 4-Chloro-2-(5,6-dichloro-3H-imidazo[4,5-b]pyridin-2-yl)phenol] | > 10000 nM | > 10000 nM | 870 nM | 2240 nM | 510 nM | 2090 nM | 8950 nM | 9760 nM | 1850 nM | –
CN1CCN(c2ccc(-c3nc4cc(Cl)c(Cl)cc4[nH]3)cc2)CC1 [Compound 10, 5,6-Dichloro-2-(4-(4-methylpipcrazin-1-yl)phenyl)-1H-benzo[d]imidazole] | 1340 nM | 5260 nM | 910 nM | 4760 nM | 21000 nM | 11200 nM | 130 nM | 3290 nM | 13 nM | –
Clc1cc2nc(-c3ccc(N4CCCCC4)cc3)[nH]c2cc1Cl [Compound 11, 5,6-dichloro-2-(4-(piperidin-1-yl)phenyl)-1H-benzo[d]imidazole] | > 10000 nM | 970 nM | > 10000 nM | 1680 nM | 570 nM | 1010 nM | 40 nM | 670 nM | 0.95 nM | –
Clc1cc2nc(-c3ccc(N4CCNCC4)cc3)[nH]c2cc1Cl [Compound 13, 5,6-dichloro-2-(4-(piperazin-1-yl)phenyl)-1H-benzo[d]imidazole] | > 10000 nM | > 10000 nM | > 10000 nM | > 10000 nM | – | – | – | – | – | –
CCN1CCN(c2ccc(-c3nc4cc(Cl)c(Cl)cc4[nH]3)cc2)CC1 [Compound 14, 5,6-dichloro-2-(4-(4-ethylpiperazin-1-yl)phenyl)-1H-benzo[d]imidazole] | 1230 nM | > 10000 nM | 1330 nM | > 10000 nM | – | – | – | – | – | –
Clc1cc2nc(-c3ccc(-n4ccnc4)cc3)[nH]c2cc1Cl [Compound 15, 2-(4-(1H-imidazol-1-yl)phenyl)-5,6-dichloro-1H-benzo[d]imidazole] | 1810 nM | > 10000 nM | 1340 nM | > 10000 nM | – | – | – | – | – | –
Cc1nccn1-c1ccc(-c2nc3cc(Cl)c(Cl)cc3[nH]2)cc1 [Compound 16, 5,6-dichloro-2-(4-(2-methyl-1H-imidazol-1-yl)phenyl)-1H-benzo[d]imidazole] | > 10000 nM | > 10000 nM | > 10000 nM | > 10000 nM | – | – | – | – | – | –
CN1CCN(c2ccc(-c3nc4ccc(C(F)(F)F)cc4[nH]3)cc2)CC1 [Compound 18, 2-(4-(4-methylpiperazin-1-yl)phenyl)-6-(trifluoromethyl)-1H-benzo[d]imidazole] | 760 nM | > 10000 nM | 1520 nM | 7160 nM | – | – | – | – | – | Inactive
CN1CCN(c2ccc(-c3nc4ccc(F)cc4[nH]3)cc2)CC1 [Compound 19, 6-fluoro-2-(4-(4-methylpiperazin-1-yl)phenyl)-1H-benzo[d]imidazole] | 330 nM | 1340 nM | 350 nM | 790 nM | – | – | – | – | – | Inactive
CN1CCN(c2ccc(-c3nc4ccncc4[nH]3)cc2)CC1 [Compound 20, 2-(4-(4-methylpiperazin-1-yl)phenyl)-3H-imidazo[4,5-c]pyridine] | 210 nM | 290 nM | 180 nM | 140 nM | – | – | – | – | – | Inactive
Cn1c(-c2ccc(OC(F)(F)F)cc2)nc2cc(Cl)c(Cl)cc21 [Compound 23, 5,6-dichloro-1-methyl-2-(4-(trifluoromethoxy)phenyl)-1H-benzo[d]imidazole] | – | – | – | – | – | – | – | – | – | Inactive
Fc1cc2nc(-c3ccc(OC(F)(F)F)cc3)[nH]c2cc1Cl [Compound 24, 6-chloro-5-fluoro-2-(4-(trifluoromethoxy)phenyl)-1H-benzo[d]imidazole] | – | – | – | – | – | – | – | – | – | Inactive
Fc1cc2[nH]c(-c3ccc(OC(F)(F)F)cc3)nc2cc1C(F)(F)F [Compound 25, 6-fluoro-2-(4-(trifluoromethoxy)phenyl)-5-(trifluoromethyl)-1H-benzo[d]imidazole] | 2050 nM | 5630 nM | 2770 nM | 7200 nM | – | – | – | – | – | Inactive
FC(F)(F)Oc1ccc(-c2nc3cc(C(F)(F)F)c(Cl)cc3[nH]2)cc1 [Compound 26, 6-chloro-2-(4-(trifluoromethoxy)phenyl)-5-(trifluoromethyl)-1H-benzo[d]imidazole] | 860 nM | 6440 nM | 950 nM | 6920 nM | – | – | – | – | – | Inactive

Second part, led by results:

IC50 (Suit-2; [1]) | IC50 (Suit-2; [2]) | IC50 (S2VP10; [3]) | IC50 (S2VP10; [4]) | IC50 (HCT116; [5]) | IC50 (HCT116; [6]) | IC50 (HT-29; [7]) | IC50 (HT-29; [8]) | SMILES | IC50 (Wnt signaling) | IC50 (effects on Wnt signaling) (Wnt signaling)
1420 nM | 7560 nM | 1080 nM | > 10000 nM | – | – | – | – | FC(F)(F)c1ccc2[nH]c(-c3ccc(N4CCCCC4)cc3)nc2c1 [Compound 29, 2-(4-(piperidin-1-yl)phenyl)-5-(trifluoromethyl)-1H-benzo[d]imidazole] | – | Inactive
70 nM | 80 nM | – | 60 nM | – | – | – | – | c1cc2nc(-c3ccc(N4CCCCC4)cc3)[nH]c2cn1 [Compound 30, 2-(4-(piperidin-1-yl)phenyl)-3H-imidazo[4,5-c]pyridine] | – | Inactive
1100 nM | 3870 nM | 600 nM | 5200 nM | – | – | – | – | FC(F)(F)c1cc2nc(-c3ccc(N4CCCC4)cc3)[nH]c2cc1Cl [Compound 32, 6-chloro-2-(4-(pyrrolidin-1-yl)phenyl)-5-(trifluoromethyl)-1H-benzo[d]imidazole] | – | Inactive
> 10000 nM | > 10000 nM | > 10000 nM | > 10000 nM | – | – | – | – | Clc1cc2nc(-c3ccc(N4CCCCC4)cc3)[nH]c2nc1Cl [Compound 33, 5,6-dichloro-2-(4-(piperidin-1-yl)phenyl)-3H-imidazo[4,5-b]pyridine] | – | Inactive
> 10000 nM | > 10000 nM | > 10000 nM | > 10000 nM | – | – | – | – | Clc1cc2nc(-c3ccc(N4CCCC4)cc3)[nH]c2nc1Cl [Compound 34, 5,6-dichloro-2-(4-(pyrrolidin-1-yl)phenyl)-3H-imidazo[4,5-b]pyridine] | – | Inactive
240 nM | 9060 nM | 150 nM | > 10000 nM | – | – | – | – | FC(F)(F)c1cc(Cl)c2[nH]c(-c3ccc(N4CCCC4)cc3)nc2c1 [Compound 35, 7-chloro-2-(4-(pyrrolidin-1-yl)phenyl)-5-(trifluoromethyl)-1H-benzo[d]imidazole] | – | Inactive
2530 nM | 8660 nM | 2950 nM | > 10000 nM | – | – | – | – | FC(F)(F)c1cc(Cl)c2[nH]c(-c3ccc(N4CCCCC4)cc3)nc2c1 [Compound 36, 7-chloro-2-(4-(piperidin-1-yl)phenyl)-5-(trifluoromethyl)-1H-benzo[d]imidazole] | – | Inactive
550 nM | 5330 nM | – | 9250 nM | – | – | – | – | FC(F)(F)c1cc2nc(-c3ccc(N4CCCCC4)cc3)[nH]c2cc1Cl [Compound 37, 6-chloro-2-(4-(piperidin-1-yl)phenyl)-5-(trifluoromethyl)-1H-benzo[d]imidazole] | – | Inactive
